Article PMC12022980, “Rational Design of PROTAC Linkers Featuring Ferrocene as a Molecular Hinge to Enable Dynamic Conformational Changes” (Journal of the American Chemical Society, 2025)
In brackets after ≈: the same amount, converted by molar mass. Read-outs that look alike come from different tables or passages of the source.

Legend:
[1] = ChromLogD (chromatographic); assay type: physicochemical; details: HPLC on Hypersil GOLD-C18 column, pH 7.4
Protocol: (§1) For the permeabilised-cell assay, 10 µL of digitonin was added, and plates were incubated in darkness for 5 minutes to allow permeabilisation. In each well 10 µL of the 10x PROTAC and vehicle control dilutions were dispensed. A 100x NanoBRET tracer solution (50 µM for VHL permeabilised-cell assay) was prepared with 100% DMSO, then diluted to a 20x solution with tracer dilution buffer. A 5 µL volume of tracer was dispensed into each well at a final concentration of 0.5 µM, and the plate was mixed at 300 RPM for 15 seconds. Finally, 50 µL of a 3x substrate solution (8.8 µL NanoBRET Nano-Glo substrate and 3,500 µL Opti-MEM) was added, and plates were incubated for 1 minute at room temperature before reading on a GloMax Discover as […]
HiBiT Lytic Assay with Zosuquidar Co-treatment
A modified HiBiT lytic assay was used to assess the activity of zosuquidar on the BET degradation. […]
(§2) Luminescence was measured using the GloMax® Multiplex Luminescence and Fluorescence Protocol for 96-well plates. The luminescence signal for each well was normalised to the fluorescence signal and further normalised to the mean values from iPrOH-treated controls, then expressed as a ratio relative to the vehicle control. Curve fitting and DC50 values were determined in GraphPad Prism v.10.0.3 using nonlinear regression with a three-parameter logistic model to calculate DC50 values.
The stock solution of each test item was prepared from a 10mM stock in iPrOH, which was further diluted 1:50 with […] to obtain a 0.2 mM solution (4 µL of the test item stock solution is diluted with 196 µL DMSO) in insert vials. The samples were analysed on an HPLC system equipped with a HPLC-ThermoScientific Hypersil GOLD-C18 column (2.1 x 50 mm, 1.9 µm) and by MS detection using electrospray ionization (ESI) and Atmospheric Pressure Chemical Ionization (APCI) on a Shimadzu LCMS 2050. […]
(§3) of 1 mL/min and a column temperature of 40 °C. […] Data were analysed with Shimadzu Open Solution Data Browser to obtain the RTs of the peak for each individual compound and standards. […]

[2] = Kinetic solubility in phosphate buffer and FeSSIF; assay type: physicochemical; details: kinetic from iPrOH stock
Protocol: Solubility in Phosphate Buffer and Fed State Simulated Intestinal Fluid (FeSSIF) 8 µL of reference or test compound stock solution (10 mM in iPrOH) was added to 792 μL of 100 mM phosphate buffer (pH 7.4) or FeSSIF (pH 5.8). The resulting mixture was shaken for 1 h (1000 rpm) at room temperature and then centrifuged for 10 min (12 000 rpm) to remove the undissolved particles. The supernatant was collected and diluted 10 times and 100 times separately with 100 mM phosphate buffer or FeSSIF. Five microliters of the supernatant samples (no diluted, 10 times diluted, 100 times diluted) were mixed with 95 μL of acetonitrile (containing internal standard) separately before injecting into LC-MS/MS for analysis. […]

HEK293 cells = test: Cell viability assay (CellTiter-Glo); assay type: cell-based; details: 72 h
Protocol: (§4) Therefore, we assessed the impact of the BET-degrading FerroTAC AS6 on the viability of BET-sensitive HCT116 cells and HEK293 cells (Figure 6A). […]
(§5) room temperature and protected from light. Thereafter, the membranes were washed with TBS-T three times for 10 min, and protein bands were acquired using a ChemiDoc MP imaging system (Bio-Rad). Band quantification was performed using Image Lab software and reported as ratio of each protein band relative to […]
(§6) Peak elution was monitored using ultraviolet absorbance at 280 nm.

HCT116 cells = test: Cell viability assay (CellTiter-Glo); assay type: cell-based; details: Homo sapiens, HCT-116, 72 h; read-out: IC50 ± S.D. HCT116
Protocol: as §4, §5, §6

[3] = LogD7.4 shake flask (octanol/phosphate buffer); assay type: physicochemical; details: octanol/potassium phosphate buffer, pH 7.4
From the text: The modulation of lipophilicity could play a critical role in optimizing PROTACs. We thus utilized traditionally measured LogD values from shake flask experiments alongside chromatographically assessed ChromLogD values.[72] […] By incorporating ferrocene, permeability may be improved due to the feature of promoting IMHB-mediated compact conformations, while also balancing the lipophilicity of the polar ligand/PEG linkers. However, while sufficient lipophilicity is required for passive uptake over the cell membrane, it may also drive poor aqueous solubility.[73]
as §1
HiBiT Lytic Assay with Zosuquidar Co-treatment […]
as §2, with “values. […]” for “values.”
as §3
ChromLogD values for the compounds were then calculated based on the regression curve. […]

Plasma stability assay = assay type: in vitro ADME; details: mouse plasma; read-out: stability T1/2 in mouse plasma
Protocol: Frozen plasma was thawed at 37 °C and centrifuged at 3000 rpm for 8 min to remove clots, and the supernatant was used in the experiment. The pH of the plasma was recorded, and only the pH range between 7.4 and 8 was used. The plasma and compound solution were prewarmed to 37 °C. 10 µL of prewarmed testing compound or reference compound (procaine) solution (20 μM in 0.05 mM sodium phosphate buffer (pH 7.4) with 0.5% BSA) was mixed with 90 μL of plasma at different time points to allow for 5, 15, 30, 45, and 60 min of incubation time. For 0 min, the plasma was mixed with vehicle only. Acetonitrile was added to the compound and plasma mixture to quench the reaction, and the resulting mixture was centrifuged (5594g for 15 min). The

[4] = Mouse liver microsome stability; assay type: in vitro ADME; details: liver microsomes
Protocol: Mouse Liver Microsome Stability
Testing compound (1.5 μL) or reference compound (500 μM in 5% iPrOH and 95% acetonitrile) was mixed with 18.75 μL of 20 mg/mL liver microsome (Corning) and 479.75 μL of potassium phosphate buffer (0.1 M potassium phosphate buffer, 1 mM EDTA, pH 7.4). The reaction was started by mixing 30 μL of the above mixture (prewarmed to 37 °C) with 15 μL of 6 mM NADPH stock solution (prewarmed to 37 °C). After incubating for 5, 15, 30, or 45 min, 135 μL of acetonitrile containing internal standard was added to stop the reaction. For 0 min, the compound and microsome mixture were mixed with acetonitrile first before adding NADPH. After quenching, the reaction mixture was centrifuged, and the supernatant was taken and diluted for LC-MS

pVHL30 = target: T1, pVHL30 (Homo sapiens, UniProt P40337); test: Western blot VHL degradation in HEK293 cells; assay type: cell-based; details: HEK293, 4 h, 1 μM
T1 construct: endogenous in cells; host or cells: HEK293 (ATCC)
T1 sequence (P40337 whole entry): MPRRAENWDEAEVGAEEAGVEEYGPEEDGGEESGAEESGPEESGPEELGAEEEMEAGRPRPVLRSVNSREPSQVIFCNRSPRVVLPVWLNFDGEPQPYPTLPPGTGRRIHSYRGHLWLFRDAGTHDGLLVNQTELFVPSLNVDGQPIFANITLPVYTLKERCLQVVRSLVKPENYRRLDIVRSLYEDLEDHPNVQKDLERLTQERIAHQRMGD
Protocol: To further elucidate the mode of action of FerroTAC AS2, we explored its dependency on ubiquitination and proteasome activity.
A) Representative immunoblots of VHL protein levels after treatment of
HEK293 cells. Cells were treated with 0.1% EtOH, 0.1 μM or 1 μM of the indicated compounds for 4 and 24 h.
Controls were included at 1 μM for 24 h. Mean values of two biologically independent experiments.
Representative time-course immunoblots of VHL protein levels after treatment of HEK293 cells treated with
Cells were treated with 0.1% EtOH and controls at 1 μM. Mean values of two biologically
independent experiments. Apparent half-life values (t 1/2) were estimated by fitting band intensity against time
using a single-phase exponential decay model. C) Representative immunoblots of VHL protein levels in
neddylation inhibitor MLN4924 (3 μM) and VHL inhibitor VH032 (50 μM). The amount of EtOH (0.1%) and
DMSO (0.5%) is fixed in all samples. Band quantification was performed using ImageJ software and reported
(in black and black) as relative amount as ratio of each protein band relative to the lane’s loading control
(tubulin). VHL/tubulin protein ratios were normalised to the average of the controls (100%).
HEK293 and HCT116 cell lines, purchased from ATCC, were cultured in Dulbecco’s modified Eagle’s medium (DMEM, Gibco) supplemented with 10% fetal bovine serum (FBS, Gibco), L-glutamine (2 mM, Gibco) and 100 μg/mL of penicillin/streptomycin (Gibco). All cell lines were maintained in a humidified incubator at 37 °C and 5% CO2 for no more than 30 passages. Cells were routinely tested for mycoplasma contamination.
Cell Treatment for Immunoblotting
depending on the experimental setup. Cells were treated in fresh medium with the indicated compounds under indicated conditions with a final EtOH or iPrOH concentration of 0.01% (v/v) to 0.1% (v/v) depending on the experimental setup. […]
stored at −80°C. Protein concentration was determined by bicinchoninic acid (BCA) assay (Thermo Fisher […]
Quantitative Immunoblotting […]

SMILES | chromatographic logD [1] | solubility kinetic at 1 h ([2]; FeSSIF pH 5.8, read-out: kinetic solubility FeSSIF (pH 5.8)) | solubility kinetic at 1 h ([2]; phosphate buffer, aqueous buffer, PBS pH 7.4, read-out: kinetic solubility PBS (pH 7.4)) | cytotoxicity in HEK293 cells (in words) (HEK293 cells) | IC50 (HCT116 cells) | logD [3] | half-life at 2 µM (Plasma stability assay) | CLint scaled at 1 µM ([4]; pH 7.4) | half-life at 1 µM ([4]; pH 7.4, read-out: stability T1/2 in mouse microsome) | pVHL30 degradation (in words) (pVHL30)
Cc1ncsc1-c1ccc(CNC(=O)C2CC(O)CN2C(=O)C(NC(=O)COCCOCCOCCNC(=O)CC2N=C(c3ccc(Cl)cc3)c3c(sc(C)c3C)-n3c(C)nnc32)C(C)(C)C)cc1 (stereo not shown) [MZ1] | 4.1 | 51.1 µM (≈ 51.2 µg/mL) | 22.4 µM (≈ 22.4 µg/mL) | almost no intrinsic cytotoxicity | 1330 nM | 3.8 | 347 min | 2180 mL/min/kg | 2.5 min | 
Cc1ncsc1-c1ccc([C@H](C)NC(=O)[C@@H]2C[C@@H](O)CN2C(=O)[C@@H](NC(=O)COCCOCCOCCOCCOCCOCC(=O)N[C@H](C(=O)N2C[C@H](O)C[C@H]2C(=O)N[C@@H](C)c2ccc(-c3scnc3C)cc2)C(C)(C)C)C(C)(C)C)cc1 [MeCM11] |  |  |  |  |  |  |  |  |  | failed to induce significant degradation
